Assays:
in vitro [1] = settings: dog, MDCK
in vitro [2] = settings: human, liver microsomes
physchem = settings: buffer, pH 7.4
in vitro [3] = settings: human, hepatocytes

| SMILES | Papp (in vitro [1]) [×10⁻⁶ cm/s] | microsomal CLint (in vitro [2]) [µL/min/mg] | logD (physchem) | hepatocyte CLint (in vitro [3]) [µL/min/1e6 cells] |
| --- | --- | --- | --- | --- |
| C[C@]1(O)CCN(c2nc(N3C[C@H](O)[C@@H](O)C3)cc(C(F)(F)F)c2C#N)C1 | 3.5 | < 13 | 2.2 |  |
| C[C@H]1[C@H](O)CN1c1nc(N2C[C@@H]3[C@@H](CC(=O)O)[C@@H]3C2)cc(C(F)(F)F)c1C#N | 5.6 | < 11 | 1 | 26 |
| C[C@H]1[C@H](O)CN1c1nc(N2C[C@@H]3[C@@H](CO)[C@@H]3C2)cc(C(F)(F)F)c1C#N |  |  | 3.3 |  |
| C[C@H]1[C@H](O)CN1c1nc(N2C[C@@H]3[C@@H](CC(=O)O)[C@@H]3C2)cc(C(F)(F)F)n1 | 1.4 |  | 0.1 | < 2 |
| C[C@H]1[C@H](O)CN1c1nc(N2C[C@@H]3[C@H](C2)[C@H]3C(=O)O)cc(C(F)(F)F)c1C#N |  |  | 0.6 |  |

Source: ChEMBL document CHEMBL4673244 (J Med Chem, 2020)
